{
  "source": "patent US20110045101A1",
  "about": "“FUNGICIDAL SUBSTITUTED AZOLES” (E.I. Du Pont De Nemours and Company, priority 2009, published 2011)",
  "assay_type_in_all_cases": "in vivo",
  "key": {"[1]": {"system": "Botrytis cinerea", "experiment": "Test C: tomato Botrytis on tomato seedlings, sprayed the day before inoculation, visual disease rating", "conditions": "200 ppm, 100 = 100% disease control", "summary_of_the_method": "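Each compound is first taken up in acetone at 3% of the final volume and then brought to the desired ppm in a 50:50 acetone–water mix with 250 ppm surfactant (polyhydric alcohol esters). Tomato seedlings receive the suspension to run-off, normally at 200 ppm, occasionally 40 ppm.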"}, "[2]": {"system": "Alternaria solani", "experiment": "Test D: tomato early blight, sprayed the day before inoculation, visual disease rating", "conditions": "200 ppm, 100 = 100% disease control", "summary_of_the_method": "(§1)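 Test rate was 200 ppm, sprayed to run-off and equal to 500 g/ha, or 40 ppm where marked. The compound was first taken up in acetone at 3% of final volume and suspended in acetone/purified water (50/50) containing 250 ppm Trem® 014.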"}, "[3]": {"system": "Septoria nodorum", "experiment": "Test F: wheat glume blotch on wheat seedlings, sprayed the day before inoculation, visual disease rating", "conditions": "200 ppm, 100 = 100% disease control", "summary_of_the_method": "as §1"}, "[4]": {"system": "Septoria tritici", "experiment": "Test G: wheat leaf blotch on wheat seedlings, sprayed the day before inoculation, visual disease rating", "conditions": "100 = 100% disease control", "summary_of_the_method": "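Spray to run-off, 200 ppm (≈500 g/ha; starred = 40 ppm), acetone/water 50/50 + 250 ppm Trem® 014. Spore inoculation +1 d. 24° C saturated 48 h → 20° C 19 d. Visual rating.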"}, "[5]": {"system": "Puccinia recondita f. sp. tritici", "experiment": "Test H: wheat leaf rust, test suspension sprayed after inoculation of wheat seedlings, visual disease rating", "conditions": "200 ppm, 100 = 100% disease control", "summary_of_the_method": "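Wheat seedlings inoculated with P. recondita spores, held 24 h saturated at 20 °C, then 2 days in growth chamber at 20 °C; compound suspension (acetone/water with Trem 014) sprayed to run-off afterwards. Rated visually; 200 ppm (≈500 g/ha) unless marked *, which denotes 40 ppm.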"}, "[6]": {"system": "Puccinia recondita f. sp. tritici", "experiment": "Test I: wheat leaf rust on wheat seedlings, sprayed the day before inoculation, visual disease rating", "conditions": "200 ppm, 100 = 100% disease control", "summary_of_the_method": "as §1"}, "[7]": {"system": "Erysiphe graminis f. sp. tritici", "experiment": "Test J: wheat powdery mildew on wheat seedlings, sprayed the day before inoculation, visual disease rating", "conditions": "200 ppm, 100 = 100% disease control", "summary_of_the_method": "as §1"}, "[8]": {"conditions": "0 = no control relative to controls"}, "[9]": {"conditions": "200 ppm, 0 = no control relative to controls"}},
  "note": "Marks after values point to notes of the source that are not given here.",
  "data": [
    {"compound": "COc1cc(F)c(-c2c(Cl)ncn2-c2cccc(Cl)c2)c(F)c1", "note": "[compound 497]", "values": [
      {"measurement": "Test C disease control rating", "setting": "[1]; [8]", "result": 97, "unit": "%"},
      {"measurement": "Test D disease control rating", "setting": "[2]; [8]", "result": 99, "unit": "%"},
      {"measurement": "Test F disease control rating", "setting": "[3]; [8]", "result": 100, "unit": "%"},
      {"measurement": "Test G disease control rating", "setting": "[4]; [9]", "result": 97, "unit": "%"},
      {"measurement": "Test H disease control rating", "setting": "[5]; [8]", "result": 0, "unit": "%"},
      {"measurement": "Test I disease control rating", "setting": "[6]; [8]", "result": 100, "unit": "%"},
      {"measurement": "Test J disease control rating", "setting": "[7]; [8]", "result": 100, "unit": "%"}
    ]},
    {"compound": "COc1cc(F)c(-c2c(Cl)nc(Br)n2-c2ccc(C(F)(F)F)nc2)c(F)c1", "note": "[Compound 707, 5-[2-bromo-4-chloro-5-(2,6-difluoro-4-methoxyphenyl)-1H-imidazol-1-yl]-2-(trifluoromethyl)pyridine]", "values": [
      {"measurement": "pest or weed control at 200 ppm", "setting": "[1]; Botrytis cinerea, 120 h, 0 = no control relative to controls", "result": 100, "unit": "%"},
      {"measurement": "pest or weed control at 200 ppm", "setting": "[2]; Alternaria solani, 168 h, 0 = no control relative to controls", "result": 100, "unit": "%"},
      {"measurement": "pest or weed control at 200 ppm", "setting": "[3]; Parastagonospora nodorum, 264 h, 0 = no control relative to controls", "result": 100, "unit": "%"},
      {"measurement": "pest or weed control at 200 ppm", "setting": "[4]; Zymoseptoria tritici, 504 h, 200 ppm, 0 = no control relative to controls", "result": 99, "unit": "%"},
      {"measurement": "pest or weed control at 200 ppm", "setting": "[5]; Puccinia recondita, 96 h, 0 = no control relative to controls", "result": 67, "unit": "%"},
      {"measurement": "pest or weed control at 200 ppm", "setting": "[6]; Puccinia recondita, 168 h, 0 = no control relative to controls", "result": 100, "unit": "%"},
      {"measurement": "pest or weed control at 200 ppm", "setting": "[7]; Blumeria graminis, 168 h, 0 = no control relative to controls", "result": 100, "unit": "%"}
    ]},
    {"compound": "COc1cc(Cl)cc(Cl)c1-c1c(Cl)nc(Cl)n1-c1ccc(Cl)c(F)c1", "note": "[compound 438]", "values": [
      {"measurement": "Test C disease control rating", "setting": "[1]; [8]", "result": 0, "unit": "%"},
      {"measurement": "Test D disease control rating", "setting": "[2]; [8]", "result": 0, "unit": "%"},
      {"measurement": "Test F disease control rating", "setting": "[3]; [8]", "result": 0, "unit": "%"},
      {"measurement": "Test G disease control rating", "setting": "[4]; 40 ppm (marked *), 0 = no control", "result": "86* %"},
      {"measurement": "Test H disease control rating", "setting": "[5]; [8]", "result": 0, "unit": "%"},
      {"measurement": "Test I disease control rating", "setting": "[6]; [8]", "result": 0, "unit": "%"},
      {"measurement": "Test J disease control rating", "setting": "[7]; [8]", "result": 0, "unit": "%"}
    ]},
    {"compound": "COc1cc(F)c(-c2c(Cl)nc(C)n2Cc2ccc(C)cc2)c(F)c1", "note": "[compound 296]", "values": [
      {"measurement": "Test C disease control rating", "setting": "[1]; 0 = no control", "result": 100, "unit": "%"},
      {"measurement": "Test D disease control rating", "setting": "[2]; 0 = no control", "result": 96, "unit": "%"},
      {"measurement": "Test F disease control rating", "setting": "[3]; 0 = no control", "result": 86, "unit": "%"},
      {"measurement": "Test G disease control rating", "setting": "[4]; 200 ppm, 0 = no control", "result": 96, "unit": "%"},
      {"measurement": "Test H disease control rating", "setting": "[5]; 0 = no control", "result": 17, "unit": "%"},
      {"measurement": "Test I disease control rating", "setting": "[6]; 0 = no control", "result": 99, "unit": "%"},
      {"measurement": "Test J disease control rating", "setting": "[7]; 0 = no control", "result": 97, "unit": "%"}
    ]},
    {"compound": "Cc1ccc(-n2c(Cl)nc(Cl)c2-c2ccc(F)cc2Cl)cc1", "note": "[compound 282]", "values": [
      {"measurement": "Test C disease control rating", "setting": "[1]; 0 = no control", "result": 99, "unit": "%"},
      {"measurement": "Test D disease control rating", "setting": "[2]; 0 = no control", "result": 99, "unit": "%"},
      {"measurement": "Test F disease control rating", "setting": "[3]; 0 = no control", "result": 0, "unit": "%"},
      {"measurement": "Test G disease control rating", "setting": "[4]; 200 ppm, 0 = no control", "result": 93, "unit": "%"},
      {"measurement": "Test H disease control rating", "setting": "[5]; 0 = no control", "result": 65, "unit": "%"},
      {"measurement": "Test I disease control rating", "setting": "[6]; 0 = no control", "result": 99, "unit": "%"},
      {"measurement": "Test J disease control rating", "setting": "[7]; 0 = no control", "result": 100, "unit": "%"}
    ]},
    {"compound": "Fc1cccc(F)c1-c1c(Cl)nc(Cl)n1-c1ccc(Cl)nc1", "note": "[compound 592]", "values": [
      {"measurement": "Test C disease control rating", "setting": "[1]; [8]", "result": 100, "unit": "%"},
      {"measurement": "Test D disease control rating", "setting": "[2]; [8]", "result": 100, "unit": "%"},
      {"measurement": "Test F disease control rating", "setting": "[3]; [8]", "result": 100, "unit": "%"},
      {"measurement": "Test G disease control rating", "setting": "[4]; [9]", "result": 96, "unit": "%"},
      {"measurement": "Test H disease control rating", "setting": "[5]; [8]", "result": 100, "unit": "%"},
      {"measurement": "Test I disease control rating", "setting": "[6]; [8]", "result": 100, "unit": "%"},
      {"measurement": "Test J disease control rating", "setting": "[7]; [8]", "result": 100, "unit": "%"}
    ]},
    {"compound": "CCOc1cc(F)c(-c2c(Cl)ncn2-c2cccc(F)c2)c(F)c1", "note": "[compound 703]", "values": [
      {"measurement": "Test C disease control rating", "setting": "[1]; [8]", "result": 100, "unit": "%"},
      {"measurement": "Test D disease control rating", "setting": "[2]; [8]", "result": 100, "unit": "%"},
      {"measurement": "Test F disease control rating", "setting": "[3]; [8]", "result": 100, "unit": "%"},
      {"measurement": "Test G disease control rating", "setting": "[4]; [9]", "result": 99, "unit": "%"},
      {"measurement": "Test H disease control rating", "setting": "[5]; [8]", "result": 39, "unit": "%"},
      {"measurement": "Test I disease control rating", "setting": "[6]; [8]", "result": 98, "unit": "%"},
      {"measurement": "Test J disease control rating", "setting": "[7]; [8]", "result": 97, "unit": "%"}
    ]},
    {"compound": "COc1ccc(F)c(-c2c(Cl)nc(Br)n2-c2ccc(Cl)c(C)c2)c1F", "note": "[compound 401]", "values": [
      {"measurement": "Test C disease control rating", "setting": "[1]; [8]", "result": 99, "unit": "%"},
      {"measurement": "Test D disease control rating", "setting": "[2]; [8]", "result": 100, "unit": "%"},
      {"measurement": "Test F disease control rating", "setting": "[3]; [8]", "result": 0, "unit": "%"},
      {"measurement": "Test G disease control rating", "setting": "[4]; [9]", "result": 96, "unit": "%"},
      {"measurement": "Test H disease control rating", "setting": "[5]; [8]", "result": 0, "unit": "%"},
      {"measurement": "Test I disease control rating", "setting": "[6]; [8]", "result": 73, "unit": "%"},
      {"measurement": "Test J disease control rating", "setting": "[7]; [8]", "result": 100, "unit": "%"}
    ]},
    {"compound": "Fc1ccc(-n2c(Cl)nc(Br)c2-c2ccc(Cl)c(F)c2)c(Cl)c1", "note": "[compound 326]", "values": [
      {"measurement": "Test C disease control rating", "setting": "[1]; [8]", "result": 100, "unit": "%"},
      {"measurement": "Test D disease control rating", "setting": "[2]; [8]", "result": 100, "unit": "%"},
      {"measurement": "Test F disease control rating", "setting": "[3]; [8]", "result": 51, "unit": "%"},
      {"measurement": "Test G disease control rating", "setting": "[4]; [9]", "result": 96, "unit": "%"},
      {"measurement": "Test H disease control rating", "setting": "[5]; [8]", "result": 67, "unit": "%"},
      {"measurement": "Test I disease control rating", "setting": "[6]; [8]", "result": 98, "unit": "%"},
      {"measurement": "Test J disease control rating", "setting": "[7]; [8]", "result": 100, "unit": "%"}
    ]},
    {"compound": "COc1cc(F)c(-c2c(Cl)nc(Cl)n2-c2ccc(Cl)nc2Cl)c(F)c1", "note": "[compound 674]", "values": [
      {"measurement": "Test C disease control rating", "setting": "[1]; [8]", "result": 99, "unit": "%"},
      {"measurement": "Test D disease control rating", "setting": "[2]; [8]", "result": 93, "unit": "%"},
      {"measurement": "Test F disease control rating", "setting": "[3]; [8]", "result": 98, "unit": "%"},
      {"measurement": "Test G disease control rating", "setting": "[4]; [9]", "result": 99, "unit": "%"},
      {"measurement": "Test H disease control rating", "setting": "[5]; [8]", "result": 98, "unit": "%"},
      {"measurement": "Test I disease control rating", "setting": "[6]; [8]", "result": 100, "unit": "%"},
      {"measurement": "Test J disease control rating", "setting": "[7]; [8]", "result": 94, "unit": "%"}
    ]}
  ]
}
